Usually pKd stands for −log10 of the Kd, conventionally taken in molar units. Low readings indicate a large Kd, high ones a small Kd.

The values that follow come from article doi:10.1101/2024.05.22.595443v1 (biorxiv, 2024).

pKd: −log10 of the molar value.

One assay concerns the target PRMT5:MEP50 complex (Homo sapiens, UniProt O14744). As to the kind of experiment: SPR. It is filed as binding.
For a further assay, the target named is EZH2 (Homo sapiens, UniProt Q15910). As to the kind of experiment: SPR. Type of assay: binding.
Sequence of EZH2 (Q15910 whole entry): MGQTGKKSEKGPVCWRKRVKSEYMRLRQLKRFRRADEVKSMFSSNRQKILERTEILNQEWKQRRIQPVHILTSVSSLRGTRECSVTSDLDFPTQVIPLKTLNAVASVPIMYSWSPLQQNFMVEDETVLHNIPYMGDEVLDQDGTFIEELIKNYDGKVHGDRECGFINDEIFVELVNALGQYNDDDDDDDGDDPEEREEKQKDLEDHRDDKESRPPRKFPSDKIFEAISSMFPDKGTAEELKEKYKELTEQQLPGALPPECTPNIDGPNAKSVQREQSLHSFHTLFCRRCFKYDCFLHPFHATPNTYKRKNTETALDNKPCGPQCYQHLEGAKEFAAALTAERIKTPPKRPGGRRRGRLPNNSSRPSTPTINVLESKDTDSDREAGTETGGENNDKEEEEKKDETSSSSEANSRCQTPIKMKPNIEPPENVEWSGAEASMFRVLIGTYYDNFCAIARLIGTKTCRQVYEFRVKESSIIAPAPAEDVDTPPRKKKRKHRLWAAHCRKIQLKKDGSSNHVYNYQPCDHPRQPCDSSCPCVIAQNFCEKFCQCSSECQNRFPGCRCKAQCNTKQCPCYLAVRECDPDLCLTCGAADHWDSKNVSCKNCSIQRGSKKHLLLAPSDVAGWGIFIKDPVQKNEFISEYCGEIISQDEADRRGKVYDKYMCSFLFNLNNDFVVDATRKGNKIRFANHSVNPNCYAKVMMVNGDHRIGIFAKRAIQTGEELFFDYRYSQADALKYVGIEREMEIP

Sequence of PRMT5:MEP50 complex (O14744 2-637): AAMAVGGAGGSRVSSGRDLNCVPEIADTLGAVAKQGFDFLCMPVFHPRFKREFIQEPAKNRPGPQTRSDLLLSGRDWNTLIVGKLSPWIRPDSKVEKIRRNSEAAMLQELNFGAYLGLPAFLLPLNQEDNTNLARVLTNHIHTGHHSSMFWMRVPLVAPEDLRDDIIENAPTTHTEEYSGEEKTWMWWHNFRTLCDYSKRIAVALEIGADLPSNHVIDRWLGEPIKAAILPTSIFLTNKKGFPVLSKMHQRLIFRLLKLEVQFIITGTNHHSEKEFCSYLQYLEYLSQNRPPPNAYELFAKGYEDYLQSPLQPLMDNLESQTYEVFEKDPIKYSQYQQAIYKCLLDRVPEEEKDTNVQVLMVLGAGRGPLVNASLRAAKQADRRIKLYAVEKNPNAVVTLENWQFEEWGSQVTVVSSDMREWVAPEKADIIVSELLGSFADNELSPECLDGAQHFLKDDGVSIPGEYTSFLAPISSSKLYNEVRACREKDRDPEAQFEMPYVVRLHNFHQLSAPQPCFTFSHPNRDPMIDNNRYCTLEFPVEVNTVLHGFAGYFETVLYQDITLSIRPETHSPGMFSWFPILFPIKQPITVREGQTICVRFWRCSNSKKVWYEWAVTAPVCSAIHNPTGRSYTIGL
Sequence of PRMT5:MEP50 complex (Q9BQA1 whole entry partner): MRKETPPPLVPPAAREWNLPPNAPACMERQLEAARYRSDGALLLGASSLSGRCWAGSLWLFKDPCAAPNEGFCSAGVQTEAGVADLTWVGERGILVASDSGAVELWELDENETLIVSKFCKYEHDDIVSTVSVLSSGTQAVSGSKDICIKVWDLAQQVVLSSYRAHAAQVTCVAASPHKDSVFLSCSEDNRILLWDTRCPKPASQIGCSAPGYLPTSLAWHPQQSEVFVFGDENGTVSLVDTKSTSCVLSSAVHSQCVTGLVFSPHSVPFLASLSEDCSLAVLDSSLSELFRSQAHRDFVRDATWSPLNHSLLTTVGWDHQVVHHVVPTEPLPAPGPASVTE

Consider `O=c1oc2c(O)c(O)cc3c(=O)oc4c(O)c(O)cc1c4c23` [Ellagic acid], for which the pKd at PRMT5:MEP50 complex is 4.18; at EZH2, 5.48.
